Laboratory results as given in PubChem BioAssay AID1963982 (Molecular Pharmacology Branch, DTP, NCI, 2024).

System: 313798-341-R-J2-PDC spheroids, viability
Assay: Anticancer human tumor 313798-341-R-J2-PDC patient-derived cervical squamous cell carcinoma cell line growth inhibition [PI3K]
Details: spheroids with HUVEC and MSC; for IC50: curve of first compound; for viability, T/C: stronger effect = lower value
In short: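 Stroma-containing spheroids: tumor line, pooled-donor HUVEC, hMSC. Treatments: targeted agents with PI3K inhibitors. Dosing: clinically relevant, half-log spacing, 10 microM ceiling without known Cmax. Read-out: cell viability.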

[1] = second compound 0.0316 µM, first compound 0.0316 µM
[2] = second compound 0.0316 µM, first compound 0.1 µM
[3] = second compound 0.0316 µM, first compound 0.316 µM
[4] = second compound 0.0316 µM, first compound 1 µM
[5] = second compound 0.0316 µM, first compound 3.16 µM
[6] = second compound 0.0316 µM, first compound 10 µM
[7] = second compound 0.1 µM, first compound 0.0316 µM
[8] = second compound 0.1 µM, first compound 0.1 µM
[9] = second compound 0.1 µM, first compound 0.316 µM
[10] = second compound 0.1 µM, first compound 1 µM
[11] = second compound 0.1 µM, first compound 3.16 µM
[12] = second compound 0.1 µM, first compound 10 µM
[13] = second compound 0.316 µM, first compound 0.0316 µM
[14] = second compound 0.316 µM, first compound 0.1 µM
[15] = second compound 0.316 µM, first compound 0.316 µM
[16] = second compound 0.316 µM, first compound 1 µM
[17] = second compound 0.316 µM, first compound 3.16 µM
[18] = second compound 0.316 µM, first compound 10 µM
[19] = second compound 1 µM, first compound 0.0316 µM
[20] = second compound 1 µM, first compound 0.1 µM
[21] = second compound 1 µM, first compound 0.316 µM
[22] = second compound 1 µM, first compound 1 µM
[23] = second compound 1 µM, first compound 3.16 µM
[24] = second compound 1 µM, first compound 10 µM
[25] = second compound 3.16 µM, first compound 0.0316 µM
[26] = second compound 3.16 µM, first compound 0.1 µM
[27] = second compound 3.16 µM, first compound 0.316 µM
[28] = second compound 3.16 µM, first compound 1 µM
[29] = second compound 3.16 µM, first compound 3.16 µM
[30] = second compound 3.16 µM, first compound 10 µM
[31] = second compound 10 µM, first compound 0.0316 µM
[32] = second compound 10 µM, first compound 0.1 µM
[33] = second compound 10 µM, first compound 0.316 µM
[34] = second compound 10 µM, first compound 1 µM
[35] = second compound 10 µM, first compound 3.16 µM
[36] = second compound 10 µM, first compound 10 µM
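Note: spheroids exposed to compounds for seven days.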
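Throughout, for viability, T/C: 100% = DMSO vehicle control viability.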

C=CC(=O)N1CCN(c2nc(=O)n(-c3c(C)ccnc3C(C)C)c3nc(-c4c(O)cccc4F)c(F)cc23)C(C)C1 (centres undefined) + Cc1nc(NC(=O)N2CCCC2C(N)=O)sc1-c1ccnc(C(C)(C)C(F)(F)F)c1
IC50 (second compound 0.0316 µM): > 10 µM
IC50 (second compound 0.1 µM): > 10 µM
IC50 (second compound 0.316 µM): > 10 µM
IC50 (second compound 1 µM): > 10 µM
IC50 (second compound 3.16 µM): > 10 µM
IC50 (second compound 10 µM): < 0.0316 µM
viability, T/C [1]: 99.9%
viability, T/C [2]: 101%
viability, T/C [3]: 96.5%
viability, T/C [4]: 106%
viability, T/C [5]: 99.2%
viability, T/C [6]: 96%
viability, T/C [7]: 94.4%
viability, T/C [8]: 94%
viability, T/C [9]: 114%
viability, T/C [10]: 86.3%
viability, T/C [11]: 94.3%
viability, T/C [12]: 92.8%
viability, T/C [13]: 91.2%
viability, T/C [14]: 90.2%
viability, T/C [15]: 93.1%
viability, T/C [16]: 98.8%
viability, T/C [17]: 101%
viability, T/C [18]: 101%
viability, T/C [19]: 89%
viability, T/C [20]: 89.4%
viability, T/C [21]: 88.2%
viability, T/C [22]: 97.3%
viability, T/C [23]: 96.7%
viability, T/C [24]: 89.5%
viability, T/C [25]: 67.5%
viability, T/C [26]: 56.5%
viability, T/C [27]: 51.9%
viability, T/C [28]: 67.5%
viability, T/C [29]: 67.9%
viability, T/C [30]: 58.5%
viability, T/C [31]: 35.2%
viability, T/C [32]: 32.4%
viability, T/C [33]: 35.7%
viability, T/C [34]: 32.9%
viability, T/C [35]: 37.9%
viability, T/C [36]: 34.2%

Cn1nccc1Nc1nccc(-c2ccn(C(CO)c3ccc(Cl)c(F)c3)c(=O)c2)n1 (centres undefined) + Cc1nc(NC(=O)N2CCCC2C(N)=O)sc1-c1ccnc(C(C)(C)C(F)(F)F)c1
IC50 (second compound 0.0316 µM): > 10 µM
IC50 (second compound 0.1 µM): > 10 µM
IC50 (second compound 0.316 µM): > 10 µM
IC50 (second compound 1 µM): > 10 µM
IC50 (second compound 3.16 µM): 5.98 µM
IC50 (second compound 10 µM): < 0.0316 µM
viability, T/C [1]: 102%
viability, T/C [2]: 90%
viability, T/C [3]: 92.9%
viability, T/C [4]: 102%
viability, T/C [5]: 102%
viability, T/C [6]: 109%
viability, T/C [7]: 95.7%
viability, T/C [8]: 103%
viability, T/C [9]: 99%
viability, T/C [10]: 103%
viability, T/C [11]: 113%
viability, T/C [12]: 106%
viability, T/C [13]: 97.4%
viability, T/C [14]: 102%
viability, T/C [15]: 103%
viability, T/C [16]: 98.8%
viability, T/C [17]: 109%
viability, T/C [18]: 103%
viability, T/C [19]: 88.8%
viability, T/C [20]: 81.3%
viability, T/C [21]: 91.9%
viability, T/C [22]: 90.4%
viability, T/C [23]: 89.4%
viability, T/C [24]: 71.3%
viability, T/C [25]: 57.9%
viability, T/C [26]: 60.4%
viability, T/C [27]: 55.7%
viability, T/C [28]: 56.5%
viability, T/C [29]: 52.9%
viability, T/C [30]: 45.4%
viability, T/C [31]: 35.4%
viability, T/C [32]: 22.1%
viability, T/C [33]: 31.6%
viability, T/C [34]: 26.8%
viability, T/C [35]: 29.2%
viability, T/C [36]: 24.1%
